Measurements reported in US8148392B2, “2-indolyl imidazo [4,5-d] phenanthroline derivatives and their use in the treatment of cancer” (Lorus Therapeutics Inc., priority 2005, dated 2012).
Like-named read-outs stand apart in the source and are kept apart here.

What was measured:
[1] = format: in vivo; conditions: i.p. twice per day for 1 week
Description: To test the sub-acute toxicity of the compounds of Formula I, female mice were injected with the compounds and toxicity was evaluated based on mortality, changes in behaviour, appearance and weight. Briefly, ICR normal female mice (5-6 weeks old; n=33) weighing about 0.020 kg in body weight, were injected with various compounds at 100 mg/kg and 50 mg/kg or with the vehicle alone (Lutrol (M68, micronized)). Groups of 3 ICR female mice were injected with one intra-peritoneal (i.p.) injection of 250 μl of each compound at 4.0 mg/ml twice per day (100 mg/kg) for 1 week (Group I); or with one intra-peritoneal (i.p.) injection of 250 μl of each compound at 2.0 mg/ml twice per day (50 mg/kg) for 1 week (Group II), or with one intra-peritoneal (i.p.) injection of 250 μl of lutrol vehicle control twice per day for 1 week (Control Group).
The compounds to be tested were prepared to provide enough for one week at concentrations of 4.0 mg/ml and 2.0 mg/ml. Briefly, 50 mg of each compound was dissolved in 1.25 ml of 100% DMSO and diluted with 6.25 ml of Lutrol (30% in water) and 5 ml water, to prepare a solution of 4 mg/ml compound in 15% Lutrol in water. Next, 4 ml of each prepared solution was further diluted with 4 ml of 15% Lutrol in water to provide the 2.0 mg/ml solution of each compound. For the vehicle control solution, 8 ml of 15% Lutrol in water was prepared. Compounds at concentrations of 4.0 mg/ml and 2.0 mg/ml and the vehicle control were administered as described above.

[2] = test system: supercoiled plasmid DNA; assay: In vitro DNA cleavage assay; format: biochemical; conditions: 25 μM compound, 10 μM CuSO4, 100 μM ascorbic acid, 37° C., 30 minutes
Description: Compound 3 was tested for its ability to cleave plasmid DNA in vitro in the presence of copper and the reducing agent ascorbic acid. Experiments were performed in a total of 20 μl, containing 10 mM NaH2PO4/Na2HPO4 buffer (pH 6.7), 1 μg of supercoiled plasmid DNA, 100 μM ascorbic acid, 25 μM drug compound (or vehicle), and 10 μM of CuSO4.5H20. The reaction mixture was incubated at 37° C. for 30 minutes, and 1 μl of 0.1 M EDTA was added to terminate the reaction. DNA loading buffer was added, and reactions were run at 80V for 80 minutes on a 1% agarose gel containing ethidium bromide.
To determine whether ions other than copper could suffice, DNA cleavage reactions were also carried out in the presence of zinc or iron. Reactions were performed as above, in the presence of 25 μM of CuSO4.5H20, ZnCl2, or FeCl2.4H20. […] Note that copper alone in the presence of ascorbic acid can shift the ratio of supercoiled DNA to open circular DNA.
To determine the ratios of compound to copper at which compound 3 was effective, reactions were performed as in FIG. 22A. The ratios of compound 3 to copper of 3:1, 2.5:1, 2:1, 1.5:1, and 1:1, as shown in FIG. 23 were achieved by maintaining the concentration of Cu constant at 10 μM, and varying the concentration of compound 3. The ratios of compound 3 to Cu of 1:1.5, 1:2, 1:2.5, and 1:3, were achieved by maintaining the concentration of compound 3 constant at 10 μM, and varying the concentration of copper.
Other compounds of Formula I, compounds 5, 7, 9 and 13 were also tested for their ability to cleave DNA at a ratio of 2.5:1 to copper (FIG. 23). Ratios of compound 3:copper as indicated, plus concentrations of copper in the absence of compound 3 were used in the DNA cleavage assay as described above.

[3] = test system: normal cell lines PrEC, HMEC, WI38 and cancer cell lines DU145, MDA-MB-435, HT-29; assay: Cancer cell selectivity, IC90 in normal versus cancer cell lines (XTT); format: cell-based, human; conditions: average IC90 of all normal / average IC90 of all cancer cell lines, 6 to 7 days
From the text: An exemplary method of assessing the differential sensitivity between normal and cancer cells for a compound has been described by Vassilev et al. (Anti-Cancer Drug Design (2001) 16:7). This method involves the comparison of IC90 values, i.e. the molar concentration of a test compound required to cause 90% growth inhibition of exponentially growing cells. Thus, the IC90 values for candidate compounds can be evaluated in various cancer cell lines (such as those outlined above) and normal cells (such as HUVEC and/or WI38 cells) and compared. IC90 values can be measured using a variety of standard techniques as known in the art. Cancer cell selectivity is calculated as a ratio between the average IC90 for all normal cell lines and the average IC90 for all cancer cell lines. Compounds with an IC90 ratio (normal/cancer) of >4 are considered to be selective for cancer cells (L. T. Vassilev et al., Anti-cancer Drug Design, 2001, 16: 7-17).
The normal cells lines used were PrEC (prostate), HMEC (breast), and WI38 (lung fibroblast) cell lines and the cancer cells lines were DU145 (prostate), MDA-MB-435 (breast), HT-29 (colon). IC90 values were also determined for the controls doxorubicin and etoposide. The cells were cultured as generally described in Example 13. Various concentrations of the compounds were incubated with the cells for 6 to 7 days, and the number of proliferating cells was measured using the XTT assay. Cancer cell selectivity was calculated as a ratio between the average IC90 for all normal and the average IC90 for all cancer cell lines.

[4] = test system: human colon carcinoma HT-29 cells; assay: XTT cell proliferation assay, HT-29; format: cell-based; conditions: Homo sapiens, HT-29, XTT, read-out: IC50
Description: The ability of compounds of Formula I to inhibit the proliferation of human colon carcinoma HT-29 cells was tested as follows. HT-29 colon carcinoma cells used in this example and subsequent examples were maintained as a monolayer in a growth medium; McCoy's 5A modified medium (Sigma, St. Louis, Mo.), supplemented with 2 mM L-glutamine (Gibco, Grand Island, N.Y.), 10% fetal bovine serum (FBS) (Multicell, WISENT Inc. St-Bruno, QC), antibiotic-antimycotic (Multicell), at 37° C. in a 5% CO2-humidified incubator. Cells were transferred onto 150 mm tissue culture plates and grown until sub-confluency (70-80%) prior to their use. The in vitro antiproliferative activity of compounds was evaluated by incubating the cells with varying concentrations of the compounds as shown in Table 1 for 6-7 days. The efficacy of these compounds in this cell proliferation assay was measured based in the ability of live cells to reduce the tetrazolium salt XTT to orange colored compounds of formazan (XTT cell proliferation kit II, Roche Applied Science, Montreal, QC).
The ability of compounds of Formula I to inhibit the proliferation of human colon carcinoma HT-29 cells was tested as described above in Example 13.
Cell growth inhibition IC50 (μM) by compounds of Formula I was tested on various cancer cell types by XTT cell proliferation assay. The growth inhibitory effects of the compounds of Formula I as shown below for the melanoma cell line SK-MEL-2 were reproducible by Lorus Therapeutics Inc.

Question: For `c1ccc(-c2[nH]c3ccccc3c2-c2nc3c4cccnc4c4ncccc4c3[nH]2)cc1` [Compound 9], which Sub-acute toxicity ([1]; 50 mg/Kg) is on record?
Answer: Its Sub-acute toxicity is “−”.

Question: What about the Sub-acute toxicity ([1]; 100 mg/Kg) of the same compound?
Answer: Its Sub-acute toxicity is “+”.

Question: And the “cleavage of plasmid DNA” value [2]?
Answer: The value was “capable of cleaving DNA”.

Question: And the “Normal/cancer IC90 ratio” value [3]?
Answer: Its value is >5.6.

Question: What about the IC50 ([4]; 6-7 days, Table 3) of the same compound?
Answer: Its IC50 is 300 nM.

Question: What about the IC50 ([4]; as Example 13, Table 7) of the same compound?
Answer: The IC50 was 0.3 µg/mL.
